Measured values as given in US20230041563A1, “N-(1,3,4-OXADIAZOL-2-YL)ARYLCARBOXAMIDES OR SALTS THEREOF, PREPARATION METHODS, HERBICIDAL COMPOSITIONS AND USES THEREOF” (priority 2018, published 2023).

Columns and labels:
Test in all cases: Weeding effect in post-emergence stage (greenhouse pot spray)
Format in all cases: in vivo
Echinochloa crusgalli = test system: Echinochloa crusgalli
Procedure, shortened: (§1)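 Greenhouse post-emergence test: compounds were sprayed at 500, 250, 125, 60 and 15 g a.i./ha onto plants 2 weeks after sowing, and fresh weight control rates were averaged from three replicates 3 weeks later.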

Abutilon theophrasti = test system: Abutilon theophrasti
Procedure, shortened: as §1

Digitaria sanguinalis = test system: Digitaria sanguinalis
Procedure, shortened: as §1

Amaranthus retroflexus = test system: Amaranthus retroflexus
Description: (§2) The activity level criteria for plant damage (i.e., growth control rate) are as follows:
(§3) The above growth control rates are fresh weight control rates.
(§4) Experiment on weeding effect in post-emergence stage: monocotyledonous and dicotyledonous weed seeds (Descurainia sophia, Capsella bursa-pastoris, Abutilon theophrasti, Galium aparine, Stellaria media, Lithospermum arvense, rorippa indica, Alopecurus aequalis, Beckmannia syzigachne, Sclerochloa dura, Phleum paniculatum, Bromus japonicus, Aegilops tauschii, Phalaris arundinacea, Amaranthus retroflexus, Chenopodiaceae, Commelina communis, Sonchus arvensis, convolvulus arvensis, Cirsium setosum, Solanum nigrum, Acalypha australis, Digitaria sanguinalis, Echinochloa crusgalli, Setaria viridis, Setaria glauca, Leptochloa chinensis, Monochoria vaginalis, Sagittaria trifolia, Scirpus juncoides, Cyperus rotundus, Cyperus iria, Cyperus difformis, Fimbristylis, Portulaca oleracea, Xanthium sibiricum, Pharbitis nil) and major crop seeds (wheat, corn, rice, soybean, cotton, oilseed rape, millet, sorghum, potato, sesame, ricinus) were placed in plastic pots filled with soil, then covered with 0.5-2 cm of soil, allowed to grow in a good greenhouse environment. After 2 weeks of sowing, the test plants were treated in the 2 to 3 leaf stage. The tested compounds of the present invention were respectively dissolved in acetone, then added with Tween 80 and 1.5 liter/ha of emulsifiable concentrate of methyl oleate as synergist, diluted with a certain amount of water to obtain a solution with a certain concentration, and sprayed with a spray tower onto the plants. After the application, the plants were cultured for 3 weeks in the greenhouse, and then the experimental results of the weeding were counted. The doses of the used compounds were 500, 250, 125, 60, 15 g a.i./ha, and the averages were obtained by repeating for three times.

Stellaria media = test system: Stellaria media
Description: as §2, §3, §4

Compound	Echinochloa crusgah (activity level) (Echinochloa crusgalli; Table 2, dose 500 g a.i./ha)	Abutilion theophrasti (activity level) (Abutilon theophrasti; Table 2, dose 500 g a.i./ha)	Digitaria sanguinalis (activity level) (Digitaria sanguinalis; Table 2, dose 500 g a.i./ha)	Amaranthus retroflexus (activity level) (Amaranthus retroflexus; Table 2, dose 500 g a.i./ha)	Stellaria media (activity level) (Stellaria media; Table 2, dose 500 g a.i./ha)	Echinochloa crusgah (activity level) (Echinochloa crusgalli; Table 2, dose 250 g a.i./ha)	Abutilion theophrasti (activity level) (Abutilon theophrasti; Table 2, dose 250 g a.i./ha)	Digitaria sanguinalis (activity level) (Digitaria sanguinalis; Table 2, dose 250 g a.i./ha)	Amaranthus retroflexus (activity level) (Amaranthus retroflexus; Table 2, dose 250 g a.i./ha)	Stellaria media (activity level) (Stellaria media; Table 2, dose 250 g a.i./ha)
CCC(C)C[S+]([O-])c1c(C(F)(F)F)ccc(C(=O)Nc2nnc(C)o2)c1F (mixture of isomers) [Compound 1-29]	5 (Level 5: growth control rate is above 85%)	5 (Level 5: growth control rate is above 85%)	5 (Level 5: growth control rate is above 85%)	5 (Level 5: growth control rate is above 85%)	5 (Level 5: growth control rate is above 85%)	–	–	–	–	–
Cc1nnc(NC(=O)c2ccc(C(F)(F)F)c(S(=O)(=O)C(C)C)c2F)o1 [Compound 1-12]	–	–	–	–	–	5 (Level 5: growth control rate is above 85%)	5 (Level 5: growth control rate is above 85%)	5 (Level 5: growth control rate is above 85%)	5 (Level 5: growth control rate is above 85%)	5 (Level 5: growth control rate is above 85%)
Cc1nnc(NC(=O)c2ccc(C(F)(F)F)c(SCC(F)F)c2F)o1 [Compound 1-49]	5 (Level 5: growth control rate is above 85%)	5 (Level 5: growth control rate is above 85%)	5 (Level 5: growth control rate is above 85%)	5 (Level 5: growth control rate is above 85%)	5 (Level 5: growth control rate is above 85%)	–	–	–	–	–
Cc1nnc(NC(=O)c2ccc(C(F)(F)F)c(SCC(F)(F)F)c2F)o1 [Compound 1-50]	5 (Level 5: growth control rate is above 85%)	5 (Level 5: growth control rate is above 85%)	5 (Level 5: growth control rate is above 85%)	5 (Level 5: growth control rate is above 85%)	5 (Level 5: growth control rate is above 85%)	–	–	–	–	–
Cc1nnc(NC(=O)c2ccc(C(F)(F)F)c(SCCC(F)(F)F)c2F)o1 [Compound 1-51]	5 (Level 5: growth control rate is above 85%)	5 (Level 5: growth control rate is above 85%)	5 (Level 5: growth control rate is above 85%)	5 (Level 5: growth control rate is above 85%)	5 (Level 5: growth control rate is above 85%)	–	–	–	–	–
Cc1nnc(NC(=O)c2ccc(C(F)(F)F)c(S(=O)(=O)CCC(F)(F)F)c2F)o1 [Compound 1-53]	5 (Level 5: growth control rate is above 85%)	5 (Level 5: growth control rate is above 85%)	5 (Level 5: growth control rate is above 85%)	5 (Level 5: growth control rate is above 85%)	5 (Level 5: growth control rate is above 85%)	–	–	–	–	–
Cc1nnc(NC(=O)c2ccc(C(F)(F)F)c(SCCO)c2F)o1 [Compound 1-59]	5 (Level 5: growth control rate is above 85%)	5 (Level 5: growth control rate is above 85%)	5 (Level 5: growth control rate is above 85%)	5 (Level 5: growth control rate is above 85%)	5 (Level 5: growth control rate is above 85%)	–	–	–	–	–
Cc1nnc(NC(=O)c2ccc(C(F)(F)F)c([S+]([O-])C(C)(C)C)c2F)o1 (centres unmarked) [Compound 1-137]	5 (Level 5: growth control rate is above 85%)	5 (Level 5: growth control rate is above 85%)	5 (Level 5: growth control rate is above 85%)	5 (Level 5: growth control rate is above 85%)	5 (Level 5: growth control rate is above 85%)	–	–	–	–	–
CC(C)=NOCCSc1c(C(F)(F)F)ccc(C(=O)Nc2nnc(C)o2)c1F [Compound 1-144]	5 (Level 5: growth control rate is above 85%)	5 (Level 5: growth control rate is above 85%)	–	5 (Level 5: growth control rate is above 85%)	5 (Level 5: growth control rate is above 85%)	–	–	–	–	–
